The record followed here is patent US5670482A, “Neuropeptide Y antagonists” (Glaxo Wellcome Inc., priority 1992, dated 1997).

Assay [1] addresses NPY receptors in rat brain membranes. The experiment in a line: Radioreceptor binding assay (3H-NPY, rat brain membranes). The settings on record: 37° C. The method, then:
Rat brain membranes were incubated with ^3 H-NPY up to equilibrium at 37° C. in the presence of several peptides at different concentrations and in a final volume of 1 ml. Non-specific binding was determined by adding 100 nM of cold NPY. At the end of the incubation period the samples were either filtered (GF/C filter), or 0.5 ml of cold incubation buffer was added and the tubes centrifuged at 15,000 g for 10 min. The supernatant was discarded and the pellet or filters resuspended and counted by liquid scintillation. Results were processed using a computer programme that calculated IC50, Kd, Bmax and Hill coefficient by linear regression. IC50 results where available are shown in column (a) of the Table.

The subject of assay [2] is Human erythroleukemic (HEL) cells. Kind of assay: Intracellular calcium measurements in HEL cells (Fura-2). It counts as cell-based. The settings on record: for HEL CELLS % Fluor (c): agonistic activity: fluorescence induced by 100 nM of the peptide; for HEL CELLS % INHIB (b): inhibition of increase in HEL cell intracellular calcium induced by 5 nM NPY, 100 nM compound. The method, then:
Human erythroleukemic (HEL) cells were loaded with Fura-2 (1 μM for 1 h), washed and then placed in a cuvette (5×10^5 cells in 2.5 ml) and excited simultaneously at 340 and 380 nm in a SLM spectrofluorometer. Fluorescence changes after the addition of NPY and/or peptide analogs were followed by recording emission at 510 nm. Calcium concentrations can be determined through a computer programme by using the ratio of fluorescence 340/380 nm. The agonistic activity of peptide analogs was tested by recording the fluorescence induced upon stimulation of the cells with 100 nM of the peptide and the antagonistic activity by observing the decrease in fluorescence induced by 5 nM NPY in the presence of the analog The results where available are indicated in column (c) of the Table.
The inhibition of the increase in the HEL cell intracellular calcium (induced by 5 nM NPY) achieved by 100 nM concentrations of each compound is shown in column (b) of the Table.

Assay [3] relates to NPY-induced increase of perfusion pressure in isolated perfused rat kidney. The experiment in a line: Isolated perfused rat kidney preparation. To be noted: antagonist infused during 5 min, read-out: IC50 for the inhibition of the NPY-induced increase of perfusion pressure. The method, then: Male CD rats (200-400 g) are anaesthetised with a mixture of Acepromazine (2.8 mg/kg) and Kenamine (112 mg/kg) injected i.p. The rat's abdomen is opened through the midline. The renal arteries and descending aorta are cleaned and, with minimal disruption of blood flow, one kidney is cannulated through the proximal renal artery using a stainless steel 20G blunt-tipped needle attached to Tygon tubing and a peristaltic pump. As soon as the first ligature is complete and perfusion of the kidney starts (10 ml/min) and the kidney is removed from the animal and placed in a constant temperature perfusion chamber. The perfusion pressure is followed by an on-line Statham pressure transducer and changes recorded in a Grass Polygraph.
Administration of Drugs: Neuropeptide Y and other agonists are administered by a single bolus injection (0.1 ml) through an injection port situated about 6 inches from the tip of the needle (approximately 0.3 ml, total volume). Antagonists are infused during 5 min (0.15 ml/min) into the kidney through an injection port situtated before the perfusion pump to allow for good mixing and constant concentration (dilution of 0.15 ml into 10 ml). […]
Results: Using the above experimental procedure we have determined the IC50 for the inhibition of the NPY-induced increase of perfusion pressure for: […]

Positions of bridges follow the written chain, without caps; N, C: chain ends. Residues, ends and D or L forms follow the SMILES beside them. Chains are numbered I, II in the order given. No end group written: not given here. *: point of attachment. Desaminotyrosyl = O=C(CCc1ccc(O)cc1)*

The IC50 is the concentration that inhibits the measured activity by half. In turn, `CC[C@H](C)[C@H](NC(=O)CCc1ccc(O)cc1)C(=O)N[C@@H](CC(N)=O)C(=O)N[C@@H](CC(C)C)C(=O)N[C@H](C(=O)N[C@@H](Cc1ccc(O)cc1)C(=O)N[C@@H](CCCNC(=N)N)C(=O)N[C@@H](CC(C)C)C(=O)N[C@@H](CCCNC(=N)N)C(=O)N[C@@H](Cc1ccc(O)cc1)C(N)=O)[C@@H](C)CC` [Example 18, desNH2 TyrIleAsnLeuIleTyrArgLeuArgTyr-NH2] (Desaminotyrosyl-INLIYRLRY-NH2) displayed an IC50 in assay [1] of 17 nM. In addition, in assay [2], the “HEL CELLS % Fluor (c)” value came out at 28% and the “HEL CELLS % INHIB (b)” value is on record as 62%.

As for “IleCysProCysTyrArgLeuArgTyr-NH2,Cyclic (2,2'),(4,4')-Disulfide Dimer (chain 1 ICPCYRLRY-NH2; chain 2 ICPCYRLRY-NH2; disulfide I:2-II:2, I:4-II:4; N-terminus assumed; SMILES CC[C@H](C)[C@H](N)C(=O)N[C@H]1CSSC[C@H](NC(=O)[C@@H](N)[C@@H](C)CC)C(=O)N2CCC[C@H]2C(=O)N[C@H](C(=O)N[C@@H](Cc2ccc(O)cc2)C(=O)N[C@@H](CCCNC(=N)N)C(=O)N[C@@H](CC(C)C)C(=O)N[C@@H](CCCNC(=N)N)C(=O)N[C@@H](Cc2ccc(O)cc2)C(N)=O)CSSC[C@@H](C(=O)N[C@@H](Cc2ccc(O)cc2)C(=O)N[C@@H](CCCNC(=N)N)C(=O)N[C@@H](CC(C)C)C(=O)N[C@@H](CCCNC(=N)N)C(=O)N[C@@H](Cc2ccc(O)cc2)C(N)=O)NC(=O)[C@@H]2CCCN2C1=O)”, in assay [3], the IC50 is 2.5 nM.

As to “IleCysProCysTyrArgLeuArgTyr-NH2,Cyclic (2,4'),(4,2')-Disulfide Dimer (chain 1 ICPCYRLRY-NH2; chain 2 ICPCYRLRY-NH2; disulfide (positions not given here); not fully specified (bridges))”, the IC50 in assay [3] was 2.5 nM.

Turning to “IleCysProCysTyrArgLeuArgTyr-NH2,Cyclic(2,2'), (4,4')-Disulfide Dimer and IleCysProCysTyrArgLeuArgTyr-NH2,Cyclic(2,4'),(4,2')-Disulfide Dimer [Example 6]”, the IC50 in assay [1] was 250 nM; in assay [2] (antagonism of 5 nM NPY-induced calcium signal, read-out: HEL CELLS IC50 (d)), 2 nM. Besides, the “HEL CELLS % Fluor (c)” value in assay [2] is 0%. Moreover, in assay [2], the “HEL CELLS % INHIB (b)” value stood at 100%.
